Test results as given in PMC5969508, “Stapled peptides as a new technology to investigate protein–protein interactions in human platelets” (Chemical Science, 2018).
Read-outs that look alike come from different tables or passages of the source.

Legend:
human platelets [1] = assay: Platelet activation markers (PAC-1, CD62P, CD63 binding) by flow cytometry; format: cell-based; details: for platelet activation markers PAC-1, CD62P, CD63 (in words): washed human platelets, 10 μM, 1 h treatment, flow cytometry (Fig. 5B)
Method: Fig. 5 (A) Functionalised, stapled Bim BH3 peptides induce PS exposure in platelets. […] (B) Stapled Bim BH3 peptides, but not ABT737 nor 21, induce platelet activation. Platelet activation markers (% positive platelets) were investigated following 1 h of peptide treatment. [drawing 10] PAC-1, [drawing 11] CD62P and [drawing 12] CD63 binding. Statistical significance compared to 20: ****P < 0.0001, ***P between 0.0001 and 0.0005, **P between 0.0010 and 0.0050 ns = non-significant.
(§1) Ethical approval for this study was obtained from the Faculty Research Ethics Committee at Anglia Ruskin University, Cambridge, UK.
(§2) 1.1 Preparation of washed platelet suspension
Blood was collected into 11 mM sodium citrate and washed platelets were prepared as follows: Platelet-rich plasma (PRP) was obtained by centrifugation (240 g, 15 min). Prostaglandin E1 (PGE1, 2 µM) was added to prevent premature platelet activation, and the plasma was centrifuged at 640 g for 15 min. Platelets were suspended in calcium free Tyrode‘s buffer (CFT buffer, containing: 140 mM NaCl, 5 mM KCl, 10 mM N-2-hydroxyethylpiperazine-N‘-2-ethanesulfonic acid (HEPES), 5 mM Glucose, 0.42 mM NaH2PO4, 12 mM NaHCO3, titrated to pH 7.4 with NaOH) to a final concentration of 2x108 platelet/mL and rested at 37 °C for 1 h prior to experimentation.
Treated washed platelet suspensions (1x10^7/mL) were analysed by flow cytometry using a C6 Accuri Flow Cytometer (Beckton Dickinson, UK), in the presence or absence of Annexin-V-PE (BD Biosciences, UK), anti-PAC-1 (BD Biosciences), anti-CD62 (BD Pharmingen, UK), or anti-CD-63P (BD Pharmingen).
Peptides were used to a final concentration of 10 µM (1 mM DMSO stock solutions). At least 10,000 events were acquired per experiment. The entire platelet population was primarily gated by FSC. […]
(§3) The washed platelet suspension was rested at 37 °C for 1 h before commencing the experiment. […] For real time measurments, the peptides were added to the 250 μL of washed platelet suspension after events were recorded for 1 minute and monitored for a further 4 min. […]
The suspensions were analysed by […]

human platelets [2] = assay: Confocal microscopy of platelets incubated with fluorescently labelled peptides; format: cell-based; details: live washed platelets, 10 µM FITC-labelled peptide, 15 minutes incubation, confocal imaging (Fig. SI_5)
Method: (§4) Fig. 3 A functionalised staple is required to induce peptide uptake into platelets. (A) Platelets were incubated with TAMRA labelled model peptides (10 μM final concentration) for 1 h (white), 2 h (grey) and 3 h incubation (black) and the percentage positive for TAMRA fluorescence was quantified using flow cytometry. (B) Peptides showing high uptake within the first hour were analysed during first 5 min following treatment. Changes in platelet-associated fluorescence were recorded in real time using flow cytometry. Unlabelled platelets were recorded for 30 s prior to addition of the given peptide. (C) Platelets were incubated with 10 μM of TAMRA-model peptides for 1 h prior to imaging by confocal microscopy. ^‡ […]
Peptide uptake experiments of the most permeable model peptides 5, 13–16 were repeated in the presence of platelet-rich plasma (PRP) to ensure realistic conditions (ESI, Fig. SI_2a ^†).
Figure SI_3. […]
Peptides were used to a final concentration of 10 µM. […] Images of TAMRA-labelled model peptide stained platelets were acquired after 1 h incubation1 using with excitation at 565 nm and emission was detected with a 560 -615 nm BP filter. […]
were acquired after 15 minutes incubation1 using excitation at 488 nm and emission was detected with […]

Bcl-xL = target: T1, Bcl-xL (Homo sapiens, UniProt Q07817); assay: Surface plasmon resonance (SPR) direct binding to Bcl-xL; details: 25 °C
T1 construct: made in house; host or cells: Escherichia coli BL21 Gold DE3
T1 sequence (Q07817 whole entry): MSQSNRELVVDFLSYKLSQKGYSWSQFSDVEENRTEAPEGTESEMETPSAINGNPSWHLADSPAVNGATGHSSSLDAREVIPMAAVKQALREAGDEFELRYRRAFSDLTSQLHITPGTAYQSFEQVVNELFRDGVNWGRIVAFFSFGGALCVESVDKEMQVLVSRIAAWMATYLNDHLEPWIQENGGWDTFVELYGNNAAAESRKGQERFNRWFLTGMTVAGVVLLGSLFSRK
Excerpt: 1.9 Surface Plasmon Resonance (SPR)
The present method utilizes a Surface plasmon resonance (SPR)-based biosensor (BiacoreTM, GE Healthcare,
Uppsala, Sweden) to characterize Bcl-xL peptide interaction partners.
The SPR assay is configured to examine direct binding of peptide s to Bcl-xL derivatized sensor surfaces and
generate relative affinity values (KDapp) to provide relative ranking data for the series of peptides under
BiacoreTM T200 (GE Healthcare, Uppsala, Sweden) was used to conduct all experiments reported herein. Sensor
surface preparation and all interaction analyses experiments were performed at 25 °C utilizing a data collection
rate of 10 Hz. Reagents were purchased from GE Healthcare. Running buffer containing 10 mM Hepes, pH 7.4,
150 mM sodium chloride, 1 mM dithiothreitol, 1% DMSO and 0.05% polysorbate 20 were utilized throughout
surface preparation and all interaction analysis experiments.
Histidine tagged Bcl-xL protein was diluted to 5 μg/mL and captured onto Sensor chip NTA via the following
sequence of injections to achieve a target Bcl-xL surface density of 700 R.U. (response units). The carboxymethyl
dextran surface of Sensor chip NTA was activated by injection of an aqueous solution containing 50 mM N-hydroxy
succinimide (NHS) and 200 mM N-ethyl-N’-(dimethylaminopropyl) carbodiimide (EDC). 500 μM nickel sulfate (NiSO4)
was subsequently injected for one minute and utilized to capture Bcl-xL from a 5 μg/mL solution injected for one
minute. A further one-minute injection of 1M ethanolamine, pH 8.5 was performed to deactivate any unreacted
carboxymethylesters.3 The flow-rate for all injections during surface derivatization was 10 µl/min.

human platelets [3] = assay: Peptide uptake in washed platelet suspension by flow cytometry; format: cell-based; details: for positive platelets (TAMRA fluorescence), peptide uptake: TAMRA-labelled model peptide 10 μM (1 mM DMSO stock), 37 °C in the dark, 3 h incubation, flow cytometry, mean ± SEM, at least three donors
Method: Washed platelet suspensions were incubated with peptides for varying periods of time and cellular uptake was quantified using flow cytometry. […] Only 34.9 ± 7.8% of platelets were fluorescent following 8 (poly-lysine) treatments after 3 hours. Changes in fluorescence were not observed with other peptides (Fig. 3A).
as §4
In order to explore the rate of peptide uptake, changes in platelet fluorescence were monitored during the first 5 minutes (Fig. 3B) and after 15, 30, 45 and 60 minutes following treatment with peptides (Fig. SI_1, ESI ^†). More than 50% of platelets became fluorescent during the first 15 minutes of incubation with peptides 13–16, with a further increase after the first 45 minutes. Some 40–50% of platelets were fluorescent after 15 minutes following treatment with peptides 2, 5 or 8. No further increase was observed thereafter (Fig. SI_1, ESI ^†).
as §1, §2
Blood was collected into 11 mM sodium citrate and washed platelets were prepared as follows: Platelet-rich plasma (PRP) was obtained by centrifugation (240 g, 15 min). Prostaglandin E1 (PGE1, 2 µM) was added to prevent premature platelet activation, and the plasma was centrifuged at 640 g for 15 min. […]
Treated washed platelet suspensions (1x10^7/mL) were analysed by flow cytometry using a C6 Accuri Flow Cytometer (Beckton Dickinson, UK), in the presence or absence of Annexin-V-PE (BD Biosciences, UK), anti-PAC-1 (BD Biosciences), anti-CD62 (BD Pharmingen, UK), or anti-CD-63P (BD Pharmingen). […]
as §3

human platelets [4] = assay: PS exposure (annexin-V binding) by flow cytometry; format: cell-based; details: washed human platelets, 10 μM, 37 °C, time course up to 3 h, flow cytometry (Fig. 5A)
Method: Platelet activation markers (% positive platelets) were investigated following 1 h of peptide treatment. […] CD63 binding.
Human blood was collected from healthy volunteers, who had not taken medication for two weeks,
following informed consent in accordance with the Declaration of Helsinki. Blood was collected into 11 mM sodium citrate and washed platelets were prepared as follows: Platelet-rich plasma (PRP) was obtained by centrifugation (240 g, 15 min). Prostaglandin E1 (PGE1, 2 µM) was added to prevent premature platelet activation, and the plasma was centrifuged at 640 g for 15 min. […]
PS exposure was assessed after incubation of 50 µL of washed platelet suspensions at 37 °C in 445 µL of […]
under the protection from direct light and analysed by flow cytometry.
Platelet activation markers (PAC -1, CD62P and CD63 binding) were assessed after incubation of 3 µL of […]
antibody and the peptide (1.1 μL of 1 mM stock solution in DMSO) . The suspensions were analysed by […]

[5] = SPR Biacore T200, His-tagged Bcl-xL on Sensor chip NTA, 7-point 2-fold dilution 33.3 nM to 1.03 nM, steady state fit, Table S1, read-out: Rel. Kdapp
[6] = washed human platelet suspension

## CN(C)CC[C@H](CSc1ccccc1)Nc1ccc(S(=O)(=O)NC(=O)c2ccc(N3CCN(Cc4ccccc4-c4ccc(Cl)cc4)CC3)cc2)cc1[N+](=O)[O-] [ABT737]
Human platelets [1]; washed human platelets in CFT buffer pH 7.4, 10 μM, 37 °C, after 1 hour, flow cytometry, mean ± SEM
  PAC1-positive platelets (integrin αIIbβ3 activation): ineffective
Human platelets [1]
  platelet activation markers PAC-1, CD62P, CD63 (in words): no increase in any activation marker

## CC[C@H](C)[C@H](NC(C)=O)C(=O)N[C@@H](Cc1c[nH]c2ccccc12)C(=O)N[C@H](C(=O)N[C@@H](C)C(=O)N[C@@H](CCC(N)=O)C(=O)N[C@@H](CCC(=O)O)C(=O)N[C@@H](CC(C)C)C(=O)N[C@@H](CCCNC(=N)N)C(=O)N[C@@]1(C)CCCC=CCCC[C@@](C)(C(=O)N[C@@H](Cc2ccccc2)C(=O)N[C@@H](CC(N)=O)C(=O)N[C@@H](C)C(=O)N[C@@H](Cc2ccc(O)cc2)C(=O)N[C@@H](Cc2ccc(O)cc2)C(=O)N[C@@H](C)C(=O)N[C@@H](CCCNC(=N)N)C(=O)N[C@@H](CCCNC(=N)N)C(N)=O)NC(=O)[C@H](CC(=O)O)NC(=O)CNC(=O)[C@H]([C@@H](C)CC)NC1=O)[C@@H](C)CC [Bim SAHBa, reference compound]
Human platelets [2]
  localisation / platelet permeability of FITC-labelled Bim BH3 peptide: able to enter the platelet cytosol
Bcl-xL; [5]
  Kd: > 0.033 µM
Bcl-xL; SPR, His-tagged Bcl-xL captured on Sensor chip NTA, steady state affinity, as quoted in main text
  relative KDapp: reduced binding affinity compared to the wild-type and peptide 19

## CC(C)C[C@@H]1NC(=O)[C@H](CC(C)C)NC(=O)[C@H](CCCNC(=N)N)NC(=O)[C@H](Cc2c[nH]c3ccccc23)NC(=O)[C@H](CC(C)C)NC(=O)[C@H](CC(=O)O)NC(=O)[C@@H](NC(=O)[C@H](Cc2ccccc2)NC(=O)[C@@H](NC(=O)[C@H](CCC(=O)O)NC(=O)CCCCCNC(=O)c2ccc3c(c2)C(=O)OC32c3ccc(N(C)C)cc3Oc3cc(N(C)C)ccc32)[C@@H](C)O)CCCn2cc(nn2)-c2cc(C(=O)N[C@@H](CCCNC(=N)N)C(=O)N[C@@H](CCCNC(=N)N)C(N)=O)cc(c2)-c2cn(nn2)CCC[C@@H](C(=O)N[C@@H](CCC(=O)O)C(=O)N[C@@H](CC(N)=O)C(N)=O)NC1=O [compound 4]
Human platelets [3]; [6]
  positive platelets (TAMRA fluorescence), peptide uptake: 73.0 ± 13.3%

## CC(C)C[C@@H]1NC(=O)[C@H](CC(C)C)NC(=O)[C@H](CCCNC(=N)N)NC(=O)[C@H](Cc2c[nH]c3ccccc23)NC(=O)[C@H](CC(C)C)NC(=O)[C@H](CC(=O)O)NC(=O)[C@@H](NC(=O)[C@H](Cc2ccccc2)NC(=O)[C@@H](NC(=O)[C@H](CCC(=O)O)NC(=O)CCCCCNC(=O)c2ccc3c(c2)C(=O)OC32c3ccc(N(C)C)cc3Oc3cc(N(C)C)ccc32)[C@@H](C)O)CCCn2cc(nn2)-c2cc(C(=O)N[C@@H](CCCNC(=N)N)C(=O)N[C@@H](CCCNC(=N)N)C(=O)N[C@@H](CCCNC(=N)N)C(N)=O)cc(c2)-c2cn(nn2)CCC[C@@H](C(=O)N[C@@H](CCC(=O)O)C(=O)N[C@@H](CC(N)=O)C(N)=O)NC1=O [compound 5]
Human platelets [3]; [6]
  positive platelets (TAMRA fluorescence), peptide uptake: 87.0 ± 7.3%
Human platelets [3]; washed human platelet suspension, TAMRA-labelled model peptide 10 μM, 37 °C, first 15 minutes of incubation, flow cytometry (Fig. SI_1)
  fluorescent platelets, peptide uptake: 40–50%
Human platelets [3]; washed human platelets, TAMRA-labelled peptide, continuous flow cytometry during first 5 minutes of treatment (Fig. 3B)
  change in platelet-associated fluorescence in real time: rapid increase in platelet fluorescence

## CC[C@H](C)[C@H](NC(C)=O)C(=O)N[C@@H](Cc1c[nH]c2ccccc12)C(=O)N[C@H](C(=O)N[C@@H](C)C(=O)N[C@@H](CCC(N)=O)C(=O)N[C@@H](CCC(=O)O)C(=O)N[C@@H](CC(C)C)C(=O)N[C@@H](CCCNC(=N)N)C(=O)N[C@H]1CCCn2cc(nn2)-c2cc(C(=O)N[C@@H](CCCNC(=N)N)C(=O)N[C@@H](CCCNC(=N)N)C(=O)N[C@@H](CCCNC(=N)N)C(N)=O)cc(c2)-c2cn(nn2)CCC[C@@H](C(=O)N[C@@H](Cc2ccccc2)C(=O)N[C@@H](CC(N)=O)C(=O)N[C@@H](C)C(=O)N[C@@H](Cc2ccc(O)cc2)C(=O)N[C@@H](Cc2ccc(O)cc2)C(=O)N[C@@H](C)C(=O)N[C@@H](CCCNC(=N)N)C(=O)N[C@@H](CCCNC(=N)N)C(N)=O)NC(=O)[C@H](CC(=O)O)NC(=O)CNC(=O)[C@H]([C@@H](C)CC)NC1=O)[C@@H](C)CC [peptide 19]
Bcl-xL; [5]
  Kd: 0.0262 µM
Bcl-xL; SPR, His-tagged Bcl-xL captured on Sensor chip NTA, steady state affinity, as quoted in main text, read-out: relative KDapp
  Kd: 0.026 µM

## CC[C@H](C)[C@H](NC(C)=O)C(=O)N[C@@H](Cc1c[nH]c2ccccc12)C(=O)N[C@H](C(=O)N[C@@H](C)C(=O)N[C@@H](CCC(N)=O)C(=O)N[C@@H](CCC(=O)O)C(=O)N[C@@H](CC(C)C)C(=O)N[C@@H](CC(=O)O)C(=O)N[C@H]1CCCn2cc(nn2)-c2cc(C(=O)N[C@@H](CCCNC(=N)N)C(=O)N[C@@H](CCCNC(=N)N)C(=O)N[C@@H](CCCNC(=N)N)C(N)=O)cc(c2)-c2cn(nn2)CCC[C@@H](C(=O)N[C@@H](Cc2ccccc2)C(=O)N[C@@H](CC(N)=O)C(=O)N[C@@H](C)C(=O)N[C@@H](Cc2ccc(O)cc2)C(=O)N[C@@H](Cc2ccc(O)cc2)C(=O)N[C@@H](C)C(=O)N[C@@H](CCCNC(=N)N)C(=O)N[C@@H](CCCNC(=N)N)C(N)=O)NC(=O)[C@H](CC(=O)O)NC(=O)CNC(=O)[C@H]([C@@H](C)CC)NC1=O)[C@@H](C)CC [peptide 21]
Human platelets [4]
  PS exposure / annexin-V binding (in words): did not result in PS exposure
Human platelets [1]
  platelet activation markers PAC-1, CD62P, CD63 (in words): nonspecific activation was not observed
Bcl-xL; SPR Biacore T200, His-tagged Bcl-xL on Sensor chip NTA, 7-point 2-fold dilution 33.3 nM to 1.03 nM, steady state fit, Table S1
  Rel. Kdapp: No binding
